Source: the supplement of paper PMC10307832

Legend:
Experiment in all cases: relative viability (nuclei count vs DMSO), 5 days (fraction); higher = more cells survive
[1] = test system: NCI-H322M
Summary of the method: (§1)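 A single step with final 0.05% Triton X-100, 1% formaldehyde and 1 ug/ml Hoechst fixed the cells and stained nuclei 5 days after treatment. Lung cancer cell lines in 1536-well plates had been treated by pin tool the day after seeding with one drug alone or a fixed anchor-drug dose plus five library-drug doses (not always all listed) in √10 steps, and nuclei were counted on 4× images. Relative viability is the ratio of nuclei in treated wells to nuclei in vehicle wells, taken as the median of duplicate plates.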

[2] = test system: SK-LU-1
Summary of the method: as §1

[3] = test system: NCI-H3122
Summary of the method: as §1

[4] = test system: NCI-H1915
Summary of the method: as §1

[5] = test system: EMC-BAC-2
Summary of the method: as §1

[6] = test system: NCI-H1975
Summary of the method: as §1

[7] = test system: NCI-H2342
Summary of the method: as §1

[8] = test system: NCI-H1437
Summary of the method: as §1

[9] = test system: SW 900
Summary of the method: as §1

[10] = test system: LK-2
Summary of the method: as §1

[11] = test system: NCI-H838
Summary of the method: as §1

[12] = test system: NCI-H1944
Summary of the method: as §1

[13] = test system: NCI-H460
Summary of the method: as §1

[14] = test system: NCI-H1755
Summary of the method: as §1

[15] = test system: PC-14
Summary of the method: as §1

[16] = test system: NCI-H1355
Summary of the method: as §1

[17] = test system: NCI-H1666
Summary of the method: as §1

[18] = test system: NCI-H1648
Summary of the method: as §1

[19] = test system: RERF-LC-KJ
Summary of the method: as §1

[20] = test system: NCI-H2085
Summary of the method: as §1

[21] = test system: NCI-H2126
Summary of the method: as §1

[22] = test system: NCI-H647
Summary of the method: as §1

[23] = test system: LCLC-103H
Summary of the method: as §1

Oc1nc(-c2ccc(C(F)(F)F)cc2)nc2c1CSCC2 [XAV939] + CC(=O)Nc1cccc(-n2c(=O)n(C3CC3)c(=O)c3c(Nc4ccc(I)cc4F)n(C)c(=O)c(C)c32)c1 [Trametinib] (partner 0.02 µM)
relative viability ([1]; first compound 0.08 µM): 0.601
relative viability ([1]; first compound 0.253 µM): 0.526
relative viability ([1]; first compound 0.8 µM): 0.555
relative viability ([1]; first compound 2.53 µM): 0.48
relative viability ([2]; first compound 0.08 µM): 0.537
relative viability ([2]; first compound 0.253 µM): 0.44
relative viability ([2]; first compound 0.8 µM): 0.543
relative viability ([2]; first compound 2.53 µM): 0.582
relative viability ([3]; first compound 0.08 µM): 0.257
relative viability ([3]; first compound 0.253 µM): 0.211
relative viability ([3]; first compound 0.8 µM): 0.237
relative viability ([3]; first compound 2.53 µM): 0.196
relative viability ([4]; first compound 0.08 µM): 0.359
relative viability ([4]; first compound 0.253 µM): 0.296
relative viability ([4]; first compound 0.8 µM): 0.276
relative viability ([4]; first compound 2.53 µM): 0.294
relative viability ([5]; first compound 0.08 µM): 0.972
relative viability ([5]; first compound 0.253 µM): 0.875
relative viability ([5]; first compound 0.8 µM): 0.78
relative viability ([5]; first compound 2.53 µM): 0.671
relative viability ([6]; first compound 0.08 µM): 0.359
relative viability ([6]; first compound 0.253 µM): 0.296
relative viability ([6]; first compound 0.8 µM): 0.35
relative viability ([6]; first compound 2.53 µM): 0.275
relative viability ([7]; first compound 0.08 µM): 0.834
relative viability ([7]; first compound 0.253 µM): 0.781
relative viability ([7]; first compound 0.8 µM): 0.717
relative viability ([7]; first compound 2.53 µM): 0.446
relative viability ([8]; first compound 0.08 µM): 0.499
relative viability ([8]; first compound 0.253 µM): 0.407
relative viability ([8]; first compound 0.8 µM): 0.518
relative viability ([8]; first compound 2.53 µM): 0.29
relative viability ([9]; first compound 0.253 µM): 0.579
relative viability ([9]; first compound 0.8 µM): 0.955
relative viability ([9]; first compound 2.53 µM): 0.495
relative viability ([10]; first compound 0.08 µM): 0.788
relative viability ([10]; first compound 0.253 µM): 0.792
relative viability ([10]; first compound 0.8 µM): 0.703
relative viability ([10]; first compound 2.53 µM): 0.535
relative viability ([11]; first compound 0.08 µM): 0.595
relative viability ([11]; first compound 0.253 µM): 0.441
relative viability ([11]; first compound 0.8 µM): 0.392
relative viability ([11]; first compound 2.53 µM): 0.39
relative viability ([12]; first compound 0.08 µM): 0.418
relative viability ([12]; first compound 0.253 µM): 0.388
relative viability ([12]; first compound 0.8 µM): 0.412
relative viability ([12]; first compound 2.53 µM): 0.292
relative viability ([13]; first compound 0.08 µM): 0.164
relative viability ([13]; first compound 0.253 µM): 0.0959
relative viability ([13]; first compound 0.8 µM): 0.124
relative viability ([13]; first compound 2.53 µM): 0.111
relative viability ([14]; first compound 0.08 µM): 0.719
relative viability ([14]; first compound 0.253 µM): 0.64
relative viability ([14]; first compound 0.8 µM): 0.661
relative viability ([14]; first compound 2.53 µM): 0.692
relative viability ([15]; first compound 0.08 µM): 0.833
relative viability ([15]; first compound 0.253 µM): 0.707
relative viability ([15]; first compound 0.8 µM): 0.671
relative viability ([15]; first compound 2.53 µM): 0.597
relative viability ([16]; first compound 0.08 µM): 0.367
relative viability ([16]; first compound 0.253 µM): 0.336
relative viability ([16]; first compound 0.8 µM): 0.38
relative viability ([16]; first compound 2.53 µM): 0.291
relative viability ([17]; first compound 0.08 µM): 1
relative viability ([17]; first compound 0.253 µM): 0.834
relative viability ([17]; first compound 0.8 µM): 0.754
relative viability ([17]; first compound 2.53 µM): 0.871
relative viability ([18]; first compound 0.253 µM): 0.438
relative viability ([18]; first compound 0.8 µM): 0.606
relative viability ([18]; first compound 2.53 µM): 0.361
relative viability ([19]; first compound 0.08 µM): 0.859
relative viability ([19]; first compound 0.253 µM): 0.733
relative viability ([19]; first compound 0.8 µM): 0.768
relative viability ([19]; first compound 2.53 µM): 0.603
relative viability ([20]; first compound 0.08 µM): 0.587
relative viability ([20]; first compound 0.253 µM): 0.436
relative viability ([20]; first compound 0.8 µM): 0.432
relative viability ([20]; first compound 2.53 µM): 0.314
relative viability ([21]; first compound 0.08 µM): 0.458
relative viability ([21]; first compound 0.253 µM): 0.44
relative viability ([21]; first compound 0.8 µM): 0.478
relative viability ([21]; first compound 2.53 µM): 0.392
relative viability ([22]; first compound 0.08 µM): 0.446
relative viability ([22]; first compound 0.253 µM): 0.433
relative viability ([22]; first compound 0.8 µM): 0.386
relative viability ([22]; first compound 2.53 µM): 0.372
relative viability ([23]; first compound 0.08 µM): 0.704
relative viability ([23]; first compound 0.253 µM): 0.641
relative viability ([23]; first compound 0.8 µM): 0.672
relative viability ([23]; first compound 2.53 µM): 0.676
